ChEMBL document CHEMBL1629585, “Nationwide survey of CTX-M-type extended-spectrum beta-lactamases among Klebsiella pneumoniae isolates in Slovenian hospitals” (2009)
Converted amounts (≈) assume the structure as drawn. One block for each compound: values may come before it.

Key:
Klebsiella pneumoniae [1] = experiment: Antibacterial activity against Klebsiella pneumoniae D expressing CTX-M group 1 beta-lactamase by Etest method; type: functional
Klebsiella pneumoniae [2] = experiment: Antibacterial activity against Klebsiella pneumoniae B expressing CTX-M group 1 beta-lactamase by Etest method; type: functional
Klebsiella pneumoniae [3] = experiment: Antibacterial activity against Klebsiella pneumoniae C expressing CTX-M group 1 beta-lactamase by Etest method; type: functional
Escherichia coli [4] = experiment: Antibacterial activity against Escherichia coli TrC A expressing Klebsiella pneumoniae A blaCTX-M beta-lactamase by Etest method; type: functional
Escherichia coli [5] = experiment: Antibacterial activity against Escherichia coli TrC C expressing Klebsiella pneumoniae C blaCTX-M beta-lactamase by Etest method; type: functional
Klebsiella pneumoniae [6] = experiment: Antibacterial activity against Klebsiella pneumoniae A expressing CTX-M group 1 beta-lactamase by Etest method; type: functional
Escherichia coli [7] = experiment: Antibacterial activity against Escherichia coli TrC B expressing Klebsiella pneumoniae B blaCTX-M beta-lactamase by Etest method; type: functional
Klebsiella pneumoniae [8] = experiment: Antibacterial activity against Klebsiella pneumoniae expressing CTX-M group 1 beta-lactamase by Etest method; type: functional
Escherichia coli [9] = experiment: Antibacterial activity against rifampicin resistant Escherichia coli J53-2 by Etest method
Klebsiella pneumoniae [10] = experiment: Antibacterial activity against Klebsiella pneumoniae expressing CTX-M group 1 beta-lactamase by Etest method in presence of clavulanic acid; type: functional
Escherichia coli [11] = experiment: Antibacterial activity against Escherichia coli TrC B expressing Klebsiella pneumoniae B blaCTX-M beta-lactamase by Etest method in presence of clavulanic acid
Escherichia coli [12] = experiment: Antibacterial activity against rifampicin resistant Escherichia coli J53-2 by Etest method in presence of clavulanic acid; type: functional
Escherichia coli [13] = experiment: Antibacterial activity against Escherichia coli TrC A expressing Klebsiella pneumoniae A blaCTX-M beta-lactamase by Etest method in presence of clavulanic acid
Escherichia coli [14] = experiment: Antibacterial activity against Escherichia coli TrC C expressing Klebsiella pneumoniae C blaCTX-M beta-lactamase by Etest method in presence of clavulanic acid
Klebsiella pneumoniae [15] = experiment: Antibacterial activity against Klebsiella pneumoniae A expressing CTX-M group 1 beta-lactamase by Etest method in presence of clavulanic acid; type: functional
Klebsiella pneumoniae [16] = experiment: Antibacterial activity against Klebsiella pneumoniae D expressing CTX-M group 1 beta-lactamase by Etest method in presence of clavulanic acid; type: functional
Klebsiella pneumoniae [17] = experiment: Antibacterial activity against Klebsiella pneumoniae C expressing CTX-M group 1 beta-lactamase by Etest method in presence of clavulanic acid; type: functional
Klebsiella pneumoniae [18] = experiment: Antibacterial activity against Klebsiella pneumoniae B expressing CTX-M group 1 beta-lactamase by Etest method in presence of clavulanic acid; type: functional

Compound: CO/N=C(\C(=O)N[C@@H]1C(=O)N2C(C(=O)[O-])=C(C[N+]3(C)CCCC3)CS[C@H]12)c1csc(N)n1
MIC (Klebsiella pneumoniae [1]): 32 µg/mL (≈ 66.6 µM)
MIC90 (Klebsiella pneumoniae [1]): > 256 µg/mL
MIC (Klebsiella pneumoniae [2]): 16 µg/mL (≈ 33.3 µM)
MIC50 (Klebsiella pneumoniae [2]): 16 µg/mL (≈ 33.3 µM)
MIC90 (Klebsiella pneumoniae [2]): 48 µg/mL (≈ 99.9 µM)

Compound: NCC[C@H](O)C(=O)N[C@@H]1C[C@H](N)[C@@H](O[C@H]2O[C@H](CN)[C@@H](O)[C@H](O)[C@H]2O)[C@H](O)[C@H]1O[C@H]1O[C@H](CO)[C@@H](O)[C@H](N)[C@H]1O [AMIKACIN]
MIC (Klebsiella pneumoniae [3]): 1.5 µg/mL (≈ 2.56 µM)
MIC50 (Klebsiella pneumoniae [3]): 6 µg/mL (≈ 10.2 µM)
MIC90 (Klebsiella pneumoniae [3]): 16 µg/mL (≈ 27.3 µM)
MIC (Escherichia coli [4]): 2 µg/mL (≈ 3.42 µM)
MIC (Klebsiella pneumoniae [1]): 2 µg/mL (≈ 3.42 µM)
MIC50 (Klebsiella pneumoniae [1]): 6 µg/mL (≈ 10.2 µM)
MIC90 (Klebsiella pneumoniae [1]): 16 µg/mL (≈ 27.3 µM)
MIC (Klebsiella pneumoniae [2]): 4 µg/mL (≈ 6.83 µM)
MIC50 (Klebsiella pneumoniae [2]): 6 µg/mL (≈ 10.2 µM)
MIC90 (Klebsiella pneumoniae [2]): 12 µg/mL (≈ 20.5 µM)
MIC (Escherichia coli [5]): 4 µg/mL (≈ 6.83 µM)
MIC (Klebsiella pneumoniae [6]): 2 µg/mL (≈ 3.42 µM)
MIC50 (Klebsiella pneumoniae [6]): 48 µg/mL (≈ 82 µM)
MIC90 (Klebsiella pneumoniae [6]): 96 µg/mL (≈ 164 µM)
MIC (Escherichia coli [7]): 4 µg/mL (≈ 6.83 µM)
MIC (Klebsiella pneumoniae [8]): 2 µg/mL (≈ 3.42 µM)
MIC50 (Klebsiella pneumoniae [8]): 16 µg/mL (≈ 27.3 µM)
MIC90 (Klebsiella pneumoniae [8]): 32 µg/mL (≈ 54.6 µM)
MIC (Escherichia coli [9]): 1 µg/mL (≈ 1.71 µM)

MIC (Klebsiella pneumoniae [3]): 6 µg/mL (≈ 16.4 µM)
MIC50 (Klebsiella pneumoniae [3]): 16 µg/mL (≈ 43.8 µM)
MIC90 (Klebsiella pneumoniae [3]): 64 µg/mL (≈ 175 µM)
MIC (Klebsiella pneumoniae [1]): 6 µg/mL (≈ 16.4 µM)
MIC50 (Klebsiella pneumoniae [1]): 16 µg/mL (≈ 43.8 µM)
MIC90 (Klebsiella pneumoniae [1]): 16 µg/mL (≈ 43.8 µM)
MIC (Klebsiella pneumoniae [2]): 12 µg/mL (≈ 32.8 µM)
MIC50 (Klebsiella pneumoniae [2]): 16 µg/mL (≈ 43.8 µM)
MIC90 (Klebsiella pneumoniae [2]): 16 µg/mL (≈ 43.8 µM)
MIC (Klebsiella pneumoniae [6]): 4 µg/mL (≈ 10.9 µM)
MIC50 (Klebsiella pneumoniae [6]): 8 µg/mL (≈ 21.9 µM)
MIC90 (Klebsiella pneumoniae [6]): 8 µg/mL (≈ 21.9 µM)
MIC (Klebsiella pneumoniae [8]): 8 µg/mL (≈ 21.9 µM)
MIC50 (Klebsiella pneumoniae [8]): 16 µg/mL (≈ 43.8 µM)
MIC90 (Klebsiella pneumoniae [8]): > 256 µg/mL
Compound: CC1(C)S[C@@H]2[C@H](NC(=O)[C@H](N)c3ccc(O)cc3)C(=O)N2[C@H]1C(=O)O [AMOXICILLIN]

Compound: CO/N=C(\C(=O)N[C@@H]1C(=O)N2C(C(=O)O)=C(COC(C)=O)CS[C@H]12)c1csc(N)n1 [CEFOTAXIME]
MIC (Klebsiella pneumoniae [3]): > 256 µg/mL
MIC50 (Klebsiella pneumoniae [3]): > 256 µg/mL
MIC90 (Klebsiella pneumoniae [3]): > 256 µg/mL
MIC (Klebsiella pneumoniae [10]): 0.032 µg/mL
MIC50 (Klebsiella pneumoniae [10]): 0.047 µg/mL
MIC90 (Klebsiella pneumoniae [10]): > 1 µg/mL
MIC (Escherichia coli [11]): 0.125 µg/mL
MIC (Escherichia coli [12]): ≤ 0.06 µg/mL
MIC (Escherichia coli [4]): 256 µg/mL (≈ 562 µM)
MIC (Escherichia coli [13]): 0.125 µg/mL
MIC (Escherichia coli [14]): 0.125 µg/mL
MIC (Klebsiella pneumoniae [15]): 0.023 µg/mL
MIC50 (Klebsiella pneumoniae [15]): 0.023 µg/mL
MIC90 (Klebsiella pneumoniae [15]): 0.19 µg/mL
MIC (Klebsiella pneumoniae [1]): > 256 µg/mL
MIC50 (Klebsiella pneumoniae [1]): > 256 µg/mL
MIC90 (Klebsiella pneumoniae [1]): > 256 µg/mL
MIC (Klebsiella pneumoniae [16]): 0.047 µg/mL
MIC50 (Klebsiella pneumoniae [16]): 0.047 µg/mL
MIC90 (Klebsiella pneumoniae [16]): 0.125 µg/mL
MIC (Klebsiella pneumoniae [2]): 96 µg/mL (≈ 211 µM)
MIC50 (Klebsiella pneumoniae [2]): > 256 µg/mL
MIC90 (Klebsiella pneumoniae [2]): > 256 µg/mL
MIC (Klebsiella pneumoniae [17]): 0.047 µg/mL
MIC50 (Klebsiella pneumoniae [17]): 0.125 µg/mL
MIC90 (Klebsiella pneumoniae [17]): > 1 µg/mL
MIC (Escherichia coli [5]): 256 µg/mL (≈ 562 µM)
MIC (Klebsiella pneumoniae [6]): 64 µg/mL (≈ 141 µM)
MIC50 (Klebsiella pneumoniae [6]): > 256 µg/mL
MIC90 (Klebsiella pneumoniae [6]): > 256 µg/mL
MIC (Klebsiella pneumoniae [18]): 0.047 µg/mL
MIC50 (Klebsiella pneumoniae [18]): 0.094 µg/mL
MIC90 (Klebsiella pneumoniae [18]): 0.094 µg/mL
MIC (Escherichia coli [7]): 256 µg/mL (≈ 562 µM)
MIC (Klebsiella pneumoniae [8]): 48 µg/mL (≈ 105 µM)
MIC50 (Klebsiella pneumoniae [8]): > 256 µg/mL
MIC90 (Klebsiella pneumoniae [8]): > 256 µg/mL
MIC (Escherichia coli [9]): 0.25 µg/mL (≈ 0.549 µM)

Compound: CO[C@@]1(NC(=O)Cc2cccs2)C(=O)N2C(C(=O)O)=C(COC(N)=O)CS[C@@H]21 [CEFOXITIN]
MIC (Klebsiella pneumoniae [3]): 8 µg/mL (≈ 18.7 µM)
MIC50 (Klebsiella pneumoniae [3]): 12 µg/mL (≈ 28.1 µM)
MIC90 (Klebsiella pneumoniae [3]): 48 µg/mL (≈ 112 µM)
MIC (Escherichia coli [4]): 16 µg/mL (≈ 37.4 µM)
MIC (Klebsiella pneumoniae [1]): 3 µg/mL (≈ 7.02 µM)
MIC50 (Klebsiella pneumoniae [1]): 4 µg/mL (≈ 9.36 µM)
MIC90 (Klebsiella pneumoniae [1]): 16 µg/mL (≈ 37.4 µM)
MIC (Klebsiella pneumoniae [2]): 8 µg/mL (≈ 18.7 µM)
MIC50 (Klebsiella pneumoniae [2]): 8 µg/mL (≈ 18.7 µM)
MIC90 (Klebsiella pneumoniae [2]): 16 µg/mL (≈ 37.4 µM)
MIC (Escherichia coli [5]): 8 µg/mL (≈ 18.7 µM)
MIC (Klebsiella pneumoniae [6]): 3 µg/mL (≈ 7.02 µM)
MIC50 (Klebsiella pneumoniae [6]): 4 µg/mL (≈ 9.36 µM)
MIC90 (Klebsiella pneumoniae [6]): 24 µg/mL (≈ 56.1 µM)
MIC (Escherichia coli [7]): 8 µg/mL (≈ 18.7 µM)
MIC (Klebsiella pneumoniae [8]): 1.5 µg/mL (≈ 3.51 µM)
MIC50 (Klebsiella pneumoniae [8]): 3 µg/mL (≈ 7.02 µM)
MIC90 (Klebsiella pneumoniae [8]): 48 µg/mL (≈ 112 µM)
MIC (Escherichia coli [9]): 8 µg/mL (≈ 18.7 µM)

Compound: CC(C)(O/N=C(\C(=O)N[C@@H]1C(=O)N2C(C(=O)[O-])=C(C[n+]3ccccc3)CS[C@H]12)c1csc(N)n1)C(=O)O [CEFTAZIDIME]
MIC (Klebsiella pneumoniae [3]): 16 µg/mL (≈ 29.3 µM)
MIC50 (Klebsiella pneumoniae [3]): 192 µg/mL (≈ 351 µM)
MIC90 (Klebsiella pneumoniae [3]): > 256 µg/mL
MIC (Klebsiella pneumoniae [10]): 0.125 µg/mL
MIC50 (Klebsiella pneumoniae [10]): 0.25 µg/mL
MIC90 (Klebsiella pneumoniae [10]): > 4 µg/mL
MIC (Escherichia coli [11]): 0.5 µg/mL
MIC (Escherichia coli [12]): 0.25 µg/mL
MIC (Escherichia coli [4]): 32 µg/mL (≈ 58.5 µM)
MIC (Escherichia coli [13]): 0.5 µg/mL
MIC (Escherichia coli [14]): 0.5 µg/mL
MIC (Klebsiella pneumoniae [15]): 0.19 µg/mL
MIC50 (Klebsiella pneumoniae [15]): 0.25 µg/mL
MIC90 (Klebsiella pneumoniae [15]): 0.5 µg/mL
MIC (Klebsiella pneumoniae [1]): 24 µg/mL (≈ 43.9 µM)
MIC50 (Klebsiella pneumoniae [1]): 48 µg/mL (≈ 87.8 µM)
MIC90 (Klebsiella pneumoniae [1]): 128 µg/mL (≈ 234 µM)
MIC (Klebsiella pneumoniae [16]): 0.19 µg/mL
MIC50 (Klebsiella pneumoniae [16]): 0.38 µg/mL
MIC90 (Klebsiella pneumoniae [16]): 0.5 µg/mL
MIC (Klebsiella pneumoniae [2]): 24 µg/mL (≈ 43.9 µM)
MIC50 (Klebsiella pneumoniae [2]): 32 µg/mL (≈ 58.5 µM)
MIC90 (Klebsiella pneumoniae [2]): 64 µg/mL (≈ 117 µM)
MIC (Klebsiella pneumoniae [17]): 0.38 µg/mL
MIC50 (Klebsiella pneumoniae [17]): 0.75 µg/mL
MIC90 (Klebsiella pneumoniae [17]): 1 µg/mL
MIC (Escherichia coli [5]): 128 µg/mL (≈ 234 µM)
MIC (Klebsiella pneumoniae [6]): 16 µg/mL (≈ 29.3 µM)
MIC50 (Klebsiella pneumoniae [6]): 32 µg/mL (≈ 58.5 µM)
MIC90 (Klebsiella pneumoniae [6]): 96 µg/mL (≈ 176 µM)
MIC (Klebsiella pneumoniae [18]): 0.25 µg/mL
MIC50 (Klebsiella pneumoniae [18]): 0.38 µg/mL
MIC90 (Klebsiella pneumoniae [18]): 0.5 µg/mL
MIC (Escherichia coli [7]): 64 µg/mL (≈ 117 µM)
MIC (Klebsiella pneumoniae [8]): 4 µg/mL (≈ 7.32 µM)
MIC50 (Klebsiella pneumoniae [8]): 48 µg/mL (≈ 87.8 µM)
MIC90 (Klebsiella pneumoniae [8]): 128 µg/mL (≈ 234 µM)
MIC (Escherichia coli [9]): 0.5 µg/mL (≈ 0.915 µM)
